Data taken from patent publication US10301314B2, “Compounds and methods for the prevention and treatment of tumor metastasis and tumorigenesis” (The United States of America, as represented by the …, priority 2011, dated 2019).

Columns and labels:
[1] = tested on: PC3M cell line that stably expresses GFP-PTB to mark PNCs; assay: High content assay for PNC detection (reduction of PNC prevalence); assay type: cell-based, human; details: Table 4, PC3M GFP-PTB cells, 16 hrs incubation; for IC50: Homo sapiens, PC-3M
From the text: The quantitative output for this assay is the reduction of PNC prevalence. The PNC can be detected in living cells by the expression of a green fluorescent protein (GFP) tagged to the PNC localized protein, PTB. A PC3M cell line was used that stably expresses GFP-PTB to mark PNCs. This method eliminates the need for immunofluorescent staining.
The IN Cell Analyzer 1000 automated fluorescent imaging system (GE Healthcare, Piscataway, N.J.) was used for automated image acquisition. […] The instrument acquired images of each well in a 1536-well plate with a laser-based autofocus system. To score PNC prevalence in a high-content throughput, the Multi-Target Analysis (MTA) algorithm (GE Healthcare, Investigator v3.5) to identify individual cells and granules (PNCs) within these cells was used. The nucleus was segmented via a region growing method (50 μm^2 minimum area) with light shading and noise removal to allow “touching” nuclei to be separated. Granules in the nucleus (PNCs) were segmented using a multiscale top hat method, which measures granules of 1 to 2 μm in size and used a smart masking method to identify the boundaries of each segmented granule. The algorithm was optimized and validated using positive and negative controls (50 μM camptothecin and DMSO, respectively). In particular, the MTA algorithm allows for the identification of multiple subcellular compartments and organelles (or granules) within those compartments. In this instance, the algorithm's capability to identify objects within the same color channel that only differ in size or fluorescent intensity was utilized. Also, the algorithm allows for building complex hierarchical classification systems, using output measures within the algorithm to filter and define subpopulations. For this particular assay, PNC-positive cells were scored when 1 to 3 PNC granules were detected per nucleus. Cells that contained 0 granules were scored as PNC negative, and cells with >3 granules were assumed to be false positives (very few cells have more than 3 PNCs in one focus plane), and were also scored as PNC negative.

[2] = tested on: PC3M reporter cell line stably expressing the PTB-GFP; assay: ATP quantitation assay (ATPLite); assay type: cell-based, human; details: Table 4, PC3M cells, 24 hrs incubation; for IC50: Homo sapiens, PC-3M
Procedure: This follow-up assay was conducted to measure the effect of compounds on cell health by measuring ATP levels (ATPLite™). ATPLite™ is an ATP monitoring system based on firefly (Photinus pyralis) luciferase. The level of ATP in a metabolically active cell is a general marker for its viability. ATP levels are often reduced during necrosis or apoptosis. In this assay, the luciferase enzyme catalyzes the conversion of the added substrate D-luciferin to oxyluciferin and light with ATP. Thus, the emitted light is proportional to the ATP concentration. For this assay, the highly metastatic PC3M reporter cell line stably expressing the PTB-GFP was provided by Professor Sui Huang of Northwestern University. The media and cell culture reagents were purchased from Invitrogen (Carlsbad, Calif.), ATPLite™ came from PerkinElmer.

Structure (SMILES)	IC50 [1] [µM]	IC50 [2] [µM]	ATP IC50(μM) [2]	PNC IC50(μM) [1]
N=c1c2c(-c3ccccc3)c(-c3ccccc3)n(Cc3ccccc3)c2ncn1C1CCCC[C@H]1CO (some centres unmarked) [Compound 66]	0.296	76.4	–	–
N=c1c2c(-c3ccccc3)c(-c3ccccc3)n(CCc3ccccc3)c2ncn1C1CCCC[C@H]1O (some centres unmarked) [Compound 68]	0.296	38.3	–	–
N=c1c2c(-c3ccccc3)c(-c3ccccc3)n(CCc3ccccc3)c2ncn1C1CCOCC1 [Compound 71]	0.372	121	–	–
COc1ccc(Cn2c(-c3ccccc3)c(-c3ccccc3)c3c(=N)n(CC4CCOCC4)cnc32)cc1 [Compound 76]	0.935	48.2	–	–
COc1ccc(Cn2c(-c3ccccc3)c(-c3ccccc3)c3c(=N)n(CCCO)cnc32)cc1 [Compound 77]	1.18	96.1	–	–
N=c1c2c(-c3ccccc3)c(-c3ccccc3)n(Cc3ccc(S(N)(=O)=O)cc3)c2ncn1CC1CCOCC1 [Compound 79]	1.87	383	–	–
N=c1c2c(-c3ccccc3)c(-c3ccccc3)n(CC3CC3)c2ncn1CCCO [Compound 81]	1.87	76.4	–	–
N=c1c2c(-c3ccccc3)c(-c3ccccc3)n(CCc3ccccc3)c2ncn1CC1CCOC1 (centres unmarked) [Compound 87]	4.69	60.7	–	–
N=c1c2c(-c3ccccc3)c(-c3ccccc3)n(CCc3ccccc3)c2ncn1CC1CCOCC1 [Compound 90]	5.9	76.4	–	–
COc1ccc(-c2c(-c3ccc(OC)cc3)n(Cc3ccccc3)c3ncn([C@H]4CC[C@H](OC)CC4)c(=N)c23)cc1 [Compound 93]	7.43	60.7	–	–
COc1ccc(Cn2c(-c3ccccc3)c(-c3ccccc3)c3c(=N)n(N4CCOCC4)cnc32)cc1 [Compound 98]	14.8	121	–	–
N=c1c2c(-c3ccccc3)cn(Cc3ccccc3)c2ncn1C(CO)(CO)CO [Compound 99]	14.8	–	inactive	–
COc1ccc(-c2c(-c3ccc(OC)cc3)n(Cc3ccccc3)c3ncn(C4CCCC[C@H]4O)c(=N)c23)cc1 (some centres unmarked) [Compound 100]	14.8	48.2	–	–
N=c1c2c(-c3ccccc3)c(-c3ccccc3)n(Cc3ccc(S(N)(=O)=O)cc3)c2ncn1CCCO [Compound 105]	23.5	304	–	–
N=c1c2c(-c3ccccc3)c(-c3ccccc3)n(Cc3ccco3)c2ncn1CCCN1CCOCC1 [Compound 107]	25	32.4	–	–
N=c1c2c(-c3ccccc3)c(-c3ccccc3)n(Cc3ccccc3)c2ncn1[C@H](CO)Cc1ccccc1 [Compound 108]	29.6	38.3	–	–
N=c1c2c(-c3ccccc3)cn(Cc3ccccc3)c2ncn1CCCCCO [Compound 109]	46.9	96.1	–	–
N=c1c2c(-c3ccccc3)cn(Cc3ccccc3)c2ncn1[C@H](CO)Cc1ccccc1 [Compound 111]	93.5	121	–	–
COc1ccc(Cn2c(-c3ccccc3)c(-c3ccccc3)c3c(=N)n([C@H](C)[C@@H](O)c4ccccc4)cnc32)cc1 [Compound 112]	–	60.7	–	inactive
COc1ccc(-c2c(-c3ccc(OC)cc3)n(Cc3ccccc3)c3ncn(C4CCCC[C@H]4CO)c(=N)c23)cc1 (some centres unmarked) [Compound 113]	–	30.4	–	inactive
COC(=O)C[C@H](C(=O)OC)n1cnc2c(c(-c3ccccc3)cn2Cc2ccc(Br)cc2)c1=N [Compound 114]	–	–	inactive	inactive
COCCn1cnc2c(c(-c3ccccc3)cn2Cc2ccccc2)c1=N [Compound 115]	–	121	–	inactive
CC[Si](CC)(CC)OCCCn1cnc2c(c(-c3ccccc3)cn2Cc2ccc(Br)cc2)c1=N [Compound 116]	–	–	inactive	inactive

More lines, in order of falling IC50 [2], values ahead:

IC50 [1] [µM]	IC50 [2] [µM]	ATP IC50(μM) [2]	PNC IC50(μM) [1]	Structure (SMILES)
1.48	30.4	–	–	N=c1c2c(-c3ccccc3)c(-c3ccccc3)n(CC3CCCCC3)c2ncn1[C@H]1CC[C@H](O)CC1 [Compound 78]
2.35	30.4	–	–	N=c1c2c(-c3ccccc3)cn(Cc3ccccc3)c2ncn1C1CCN(Cc2ccccc2)CC1 [Compound 82]
4.69	30.4	–	–	N=c1c2c(-c3ccccc3)c(-c3ccccc3)n(Cc3ccccc3)c2ncn1CC1CCOCC1 [Compound 88]
5.9	30.4	–	–	N=c1c2c(-c3ccccc3)c(-c3ccccc3)n(Cc3ccc(OC(F)(F)F)cc3)c2ncn1CC1CCOCC1 [Compound 91]
11.8	30.4	–	–	N=c1c2c(-c3ccccc3)c(-c3ccccc3)n(Cc3ccccc3)c2ncn1CCCN1CCN(c2ccccc2)CC1 [Compound 96]
23.5	30.4	–	–	COc1ccc(-c2c(-c3ccc(OC)cc3)n(Cc3ccccc3)c3ncn(C4CCOCC4)c(=N)c23)cc1 [Compound 104]
23.5	30.4	–	–	N=c1c2c(-c3ccccc3)c(-c3ccccc3)n(CC3CCCCC3)c2ncn1CCCO [Compound 106]
46.9	30.4	–	–	N=c1c2c(-c3ccccc3)cn(Cc3ccc(Br)cc3)c2ncn1CCCN1CCN(c2ccccc2)CC1 [Compound 110]
15.8	25.7	–	–	N=c1c2c(-c3ccccc3)c(-c3ccccc3)n(Cc3ccco3)c2ncn1Cc1ccccc1 [Compound 102]
0.296	24.1	–	–	N=c1c2c(-c3ccccc3)c(-c3ccccc3)n(CCc3ccccc3)c2ncn1CCC1CCC(O)CC1 (centres unmarked) [Compound 67]
0.372	24.1	–	–	N=c1c2c(-c3ccccc3)c(-c3ccccc3)n(Cc3ccc(OC(F)(F)F)cc3)c2ncn1[C@H]1CC[C@H](O)CC1 [Compound 70]
0.469	24.1	–	–	N=c1c2c(-c3ccccc3)c(-c3ccccc3)n(Cc3ccccc3)c2ncn1CCNc1ccncc1 [Compound 72]
0.59	24.1	–	–	N=c1c2c(-c3ccccc3)c(-c3ccccc3)n(Cc3ccccc3)c2ncn1C[C@@H]1CCCC[C@H]1O [Compound 73]
0.743	24.1	–	–	N=c1c2c(-c3ccccc3)c(-c3ccccc3)n(Cc3ccc(OC(F)(F)F)cc3)c2ncn1CCCO [Compound 74]
0.935	24.1	–	–	N=c1c2c(-c3ccccc3)c(-c3ccccc3)n(Cc3ccc(OC(F)(F)F)cc3)c2ncn1C1CCOCC1 [Compound 75]
2.96	24.1	–	–	C[C@H]([C@@H](O)c1ccccc1)n1cnc2c(c(-c3ccccc3)c(-c3ccccc3)n2Cc2ccccc2)c1=N [Compound 83]
2.96	24.1	–	–	N=c1c2c(-c3ccccc3)c(-c3ccccc3)n(Cc3ccc(OC(F)(F)F)cc3)c2ncn1[C@H]1CC[C@@H](O)CC1 [Compound 84]
2.96	24.1	–	–	N=c1c2c(-c3ccccc3)c(-c3ccccc3)n(Cc3ccccc3)c2ncn1CC1CCOC1 (centres unmarked) [Compound 85]
3.72	24.1	–	–	N=c1c2c(-c3ccccc3)c(-c3ccccc3)n(CC3CCCCC3)c2ncn1[C@H]1CC[C@@H](O)CC1 [Compound 86]
5.9	24.1	–	–	N=c1c2c(-c3ccc4c(c3)OCO4)c(-c3ccc4c(c3)OCO4)n(Cc3ccccc3)c2ncn1C1CCOCC1 [Compound 89]
9.35	24.1	–	–	COc1ccc(-c2c(-c3ccc(OC)cc3)n(Cc3ccccc3)c3ncn([C@H]4CC[C@H](O)CC4)c(=N)c23)cc1 [Compound 94]
11.8	24.1	–	–	N=c1c2c(-c3ccccc3)c(-c3ccccc3)n(CC3CCCCC3)c2ncn1CC1CCOCC1 [Compound 95]
14.8	24.1	–	–	N=c1c2c(-c3ccccc3)c(-c3ccccc3)n(CC3CCCCC3)c2ncn1C[C@H]1CCCC[C@@H]1O [Compound 101]
18.7	24.1	–	–	COc1ccc(-c2c(-c3ccc(OC)cc3)n(Cc3ccccc3)c3ncn(CCO)c(=N)c23)cc1 [Compound 103]
1.87	21.5	–	–	N=c1c2c(-c3ccccc3)c(-c3ccccc3)n(CC3CCCCC3)c2ncn1C1CCCC[C@H]1O (some centres unmarked) [Compound 80]
0.372	19.2	–	–	CO[C@H]1CC[C@H](n2cnc3c(c(-c4ccccc4)c(-c4ccccc4)n3Cc3ccc(OC(F)(F)F)cc3)c2=N)CC1 [Compound 69]
